Melting point data for 89 molecules are collected here from a melting point compilation (Tetko et al.; mined from patent text by program, amines drawn as free bases though some values may be those of a salt).

Consider `O=c1oc2cc(O)c(O)c([N+](=O)[O-])c2c2c1CCCC2`, for which the melting point was in the range of 238 to 255 °C. `O=C(O)c1cc([N+](=O)[O-])ccc1Sc1cccc(Br)c1` returned a melting point of 202 to 206 °C. The result for `O=c1ccc(Cl)cn1[C@@H]1c2ccccc2OCC[C@H]1O` (relative stereo) reads 176 to 178 °C; that for `CCOC(=O)C1=C(C)NN=C(CC)C1c1ccccc1Cl` (centres undefined), 112 °C. The result for `CCCCS(=O)(=O)c1ccc(NN)cc1` reads 138 °C. The result for `CC(C)n1nc(-c2nc(C3=CCN(C)CC3)c(N)nc2-c2ccccc2)ccc1=O` reads 209 to 211 °C; that for `O=S(=O)(CCCCCl)c1ccccc1`, 55 to 58 °C; that for `N#Cc1c(-c2ccc(Cl)cc2)[nH]c([N+](=O)[O-])c1Br`, 180 to 185 °C. Turning to `O=C(C(=O)c1ccc(Oc2ccc(Br)cc2)cc1)c1ccccc1`, the melting point is 85 to 86 °C.

As to `[N-]=[N+]=N[Si](c1ccccc1)(c1ccccc1)c1ccccc1`, the melting point is 82 to 84 °C. Molecule `O=Cc1ccc(OC2CCN(C(=O)OCC3c4ccccc4-c4ccccc43)CC2)cc1` displayed a melting point of 106 to 108 °C. Turning to `Clc1cc(N2CCCCCC2)nc(-c2ccccc2)n1`, the melting point was in the range of 64 to 66 °C. The result for `CC(=O)Nc1cc(C)c(C)cc1OC(C)=O` reads 156 to 158 °C; that for `CC(C)(C)OC(=O)N1CCN(CC(=O)Nc2ccc(CC#N)cc2)CC1`, 137 to 138 °C. Take `O=C(CCC(=O)c1ccccc1)NC1CCCCC1`: the melting point lay in the range of 109 to 111 °C. `Cc1cc(Br)ccc1C1(CBr)OCCO1` had a melting point of 86 °C. The result for `CCCCCCCCCCCCCC(=O)NN(C)C` reads 63.5 to 64.5 °C; that for `COc1cc(C(=O)OC(C)(C)C)ccc1Cn1cc(CC(C)C(=O)O)c2ccc(C(=O)NCC3CCCC3)cc21` (centres undefined), 195 to 197 °C. The result for `CCCCN1C(=O)NC(CO)C1=O` (centres undefined) reads 93 °C; that for `CCCCCCCNC(=O)Nc1ccc(N(C)C)cc1C(=O)NCC1CCN(C(c2ccc(Cl)cc2)c2ccc(Cl)cc2)CC1`, 216 °C; that for `CC1C(c2ccccc2)OC(=O)N1C(=O)CC1c2ccccc2CCc2ccccc21` (centres undefined), 130 to 131 °C.

The molecule `CC(C)n1cc(-c2ccc(C=O)cc2)c2c(Cl)ncnc21` showed a melting point of 138 to 140 °C. As for `CC(C)c1c(-c2cc(C(F)(F)F)cc(C(F)(F)F)c2)ccc2nc(N)nc(N)c12`, the melting point was 212 to 214 °C. The result for `CCCCCNC(=O)n1cc(F)c(N)nc1=O` reads 289 to 292 °C; that for `CC(=O)OCc1c(C(=O)C(=O)O)c2cc(-c3ccc(OC(F)(F)F)cc3)ccc2n1Cc1ccc(C)cc1`, 79 to 80 °C. In turn, `Cc1cnnc2c1C(=O)CC(c1cc(Cl)ccc1F)C2` (centres undefined) showed a melting point of 124 to 125 °C. The result for `CCOc1cc(Br)cc2c1OC(C)(C)C2` reads 55 to 58 °C; that for `COc1ccnc(CS(=O)c2nc3cc(OC(F)F)ccc3n2S(=O)(=O)c2ccc(Cl)cc2)c1OC` (centres undefined), 82 to 83 °C.

Molecule `FC(F)(F)CSc1nc2cc(Cl)c(Cl)cc2[nH]1` came in with a melting point of 144 to 146 °C. The result for `CC(C)C(=O)CNC(=O)c1ccc(Cl)cc1` reads 118 to 119 °C; that for `O=C1NCCc2cc(F)ccc21`, 107 to 108 °C; that for `Cn1ncnc1COc1nn2c(-c3ccccc3F)nncc2c1-c1ccccn1`, 186 to 187 °C.

In the case of `COc1ccc(C(=O)C2Cc3ccc(O)c(O)c3C2=O)cc1` (centres undefined), the melting point fell in the range of 191 to 193 °C. The result for `C=CC(=O)NC(=O)NC(=O)CCl` reads 144 to 145 °C; that for `O=C(O)C(=O)CC(=O)c1ccc(Cc2ccc(Cl)c(Cl)c2)cc1`, 133 to 140 °C. The result for `CCCCc1nn(-c2cc([N+](=O)[O-])ccc2Br)c(=O)n1Cc1ccc(-c2ccccc2S(=O)(=O)NC(C)(C)C)cc1` reads 126 to 128 °C; that for `O=[N+]([O-])c1ccc(-n2ccnn2)cc1`, 205 to 206 °C. The result for `O=C(COc1ccc(-c2ccccc2)cc1)Nc1cscc1C(=O)O` reads 247 to 251 °C. For `CC(=O)OC1CSC(Oc2cc(-c3ccncc3)cnc2F)C(OC(C)=O)C1OC(C)=O` (centres undefined), the melting point lay in the range of 143 to 144 °C. The result for `CC(=O)NC1CC(n2cc(C=CBr)c(=O)[nH]c2=O)OC1CBr` (centres undefined) reads 178 to 180 °C. Take `CC(C)NCC1CCN(c2c(F)cc3c(=O)c(C(=O)O)cn(C4CC4)c3c2F)C1` (centres undefined): the melting point was in the range of 218 to 221 °C. `Cc1nn(-c2ccccc2)c2[nH]c(=O)c3ccccc3c12`: the melting point fell in the range of 302 to 304 °C. `CCOc1ccc(OCC(C)(NS(=O)(=O)Cc2ccccc2)C(=O)N2CCOCC2)cc1` (centres undefined): the melting point was in the range of 109 to 111 °C. The result for `NS(=O)(=O)c1cc(CCNC(=O)C=Cc2cccs2)ccc1OCC1CCCO1` (centres undefined) reads 180 to 185 °C; that for `COCC(O)Cn1ncc([N+](=O)[O-])n1` (centres undefined), 58.2 to 59 °C. Take `O=c1[nH]c2ccc(S(=O)CCN3CCC(Cc4cccc(F)c4F)CC3)cc2o1` (centres undefined): the melting point was in the range of 188 to 190 °C. The result for `O=C(O)C1=CC(CF)(CF)Oc2ccc(C(F)(F)C(F)(F)F)cc21` reads 173 to 174 °C; that for `Cc1cc(F)c(N)cc1N`, 112 °C. In turn, `CC1Cc2c(N3C(=O)C4=C(CCCC4)C3=O)ccc(Cl)c2O1` (centres undefined) showed a melting point of 134 to 137 °C.

`CC1(C)CC(=O)C(F)C(C)(C)C1` (centres undefined) yielded a melting point of 27 to 31 °C. Molecule `ON=Cc1c(-c2ccccc2Br)ccc2c1OCO2` registered a melting point of 168 to 169 °C. The result for `N#Cc1ccccc1C=C1c2ccccc2CCc2ccccc21` reads 185 °C.

Molecule `CCc1c(OC)nc2nc(-c3noc(C(F)(F)F)n3)cn2c1C` registered a melting point of 197 to 200 °C. The molecule `Clc1ccc(Nc2nncc3ccccc23)cc1` yielded a melting point of 211 °C. The result for `O=C(Nc1cccnc1NCc1ccc(Cl)cc1)c1ccccc1Cl` reads 117 to 119 °C; that for `CC(=O)NCCOC(=O)C1CCn2c1cc(C)c2C(=O)c1ccc(Cl)n1C` (centres undefined), 156 to 157 °C. The result for `CCN(C)c1nsc(N)c1C#N` reads 94 to 95 °C; that for `CC(C)Oc1ccc(-n2c(-c3ccc(C(=O)O)cc3)c(C(=O)O)c3cc(Oc4cccc(Cl)c4)ccc32)cc1`, 211 to 217 °C. For `O=C(O)c1cccc(C(=O)NCc2ccc(F)c(-c3cccc(CO)c3)c2)c1`, the melting point was in the range of 169 to 171 °C. The result for `CON=Cc1nc(Nc2ccccc2)nc(C)c1C` reads 85 to 88 °C; that for `O=C(O)CCCNC(=O)n1cc(F)c(=O)[nH]c1=O`, 146 to 147 °C; that for `CC1(C)C2CCC1(CCBr)CC2`, 68 to 71 °C. The result for `O=C(O)c1ccc(C=CC(=O)N2CCc3c([nH]c4ccccc34)C2c2ccc3c(c2)OCO3)cc1` (centres undefined) reads 254 to 256 °C; that for `Cc1ncc(CS)c2c1OC(c1ccccc1)OC2` (centres undefined), 110 to 112 °C. The result for `CC(C)C[C@H](NC(=O)CCC(=O)c1ccccc1)C(=O)N[C@@H](C(C)C)[C@@H](O)c1c(-c2ccccc2)c1=O` reads 83 to 88 °C. `FC(F)(F)c1cc(C(F)(F)F)n(-c2ccc(NCc3ccncc3)cc2)n1` yielded a melting point of 92 to 94 °C. The result for `COC(=O)c1c(-c2ccc(Cl)cc2)c2cc(OCc3ccccc3)ccc2c(=O)n1CC(C)C` reads 166 °C.

With `CN(C)CCCCC(=O)c1ccc2c(c1)C(=O)c1cc(C(=O)CCCCN(C)C)ccc1-2`, the melting point was in the range of 150 to 151 °C. For the molecule `CC(C)(C)c1ccc(CC[C@H](CC2CCCCC2)O[Si](C)(C)C(C)(C)C)cc1NC(=O)CC1c2ccccc2Oc2ccccc21`, the melting point lay within 173 to 174 °C.

For `O[C@H](COc1cccc2[nH]ccc12)CN1CC=C(c2c[nH]c3cc(F)ccc23)CC1`, the melting point lay within 95 to 100 °C. On to `N#CC1(c2ccc(Cl)cc2)CCC(=O)CC1`, for which the melting point is 94.5 to 97 °C. The result for `CCCOc1ccc(F)c2c(=O)c(-c3ccc(OC)cc3)cn(CCN3CCOCC3)c12` reads 206 to 208 °C. `C[C@H](NN1C(=O)c2ccccc2S1(=O)=O)C(=O)N[C@@H](Cc1ccccc1)C(=O)O` returned a melting point of 190 to 193 °C.

In turn, `c1cncc(OCCCCCCOc2cccnc2)c1` had a melting point of 85 °C.

`CCCc1c2c(cc3[nH]c(=O)c(=O)oc13)CCCC2`: the melting point was in the range of 175 to 180 °C. The result for `CC(=O)N[C@H]1C(n2cc(Cl)cnc2=O)O[C@H](COC(C)=O)[C@@H](OC(C)=O)[C@@H]1OC(C)=O` (some centres undefined) reads 165 to 167 °C; that for `COc1ccc(CNc2cc3c(Nc4ccc(OCc5ccccn5)c(Cl)c4)ncnc3cn2)cc1`, 182 to 184 °C; that for `FC(F)(F)C1(c2cc(Cl)cc(Cl)c2)CC(c2ccc(-n3ccnc3)cc2)=NO1` (centres undefined), 193 to 195 °C. `CC(CCCCO)Oc1c(I)cc(I)cc1I` (centres undefined) registered a melting point of 79 to 80 °C. The result for `CNS(=O)(=O)c1ccc(Nc2nc(N)c(C(=O)c3sccc3C)s2)cc1` reads 197 to 200 °C; that for `FC(F)(F)c1cccc(N2CCN(c3ccc(I)nn3)CC2)c1`, 145 °C; that for `COc1ccc(C(=O)Cc2c(Cl)cncc2Cl)c2c(CC(=O)NCc3ccccc3)coc12`, 244 to 246 °C. Regarding `CN(C)c1c(Cl)nc(-c2ccccc2)nc1Cl`, the melting point fell in the range of 49 to 50 °C. The result for `O=S(=O)(F)c1ccccc1S(=O)(=O)F` reads 130 to 131 °C; that for `COc1cc2nc(-c3n[nH]cc3NC(=O)C3CC3)[nH]c2cc1Cl`, 225 to 226 °C; that for `CCCCOc1ccc(CNC(=O)c2ccccc2[N+](=O)[O-])cc1`, 101 to 102 °C. Consider `CCCCCC(C)N(Cc1ccc(CC(C)(C)C)s1)C(Nc1ccc(OC)cc1OC)=C1C(=O)OC(C)(C)OC1=O` (centres undefined), for which the melting point was 152 to 153 °C. The result for `CCN1c2ncc(CCc3cccc(I)c3)cc2C(=O)N(C)c2ccc(Cl)nc21` reads 143 to 145 °C. The result for `COc1cc2c(cc1OC)CN(CCc1ccc(NC(=O)c3cccc4c(=O)c5cccc(OC)c5[nH]c34)cc1)CC2` reads 215 to 225 °C.
